The numbers were not newly measured in article PMC10772668 (Clinical and Translational Science, 2023), which cites them from elsewhere.

The conditions of the series: cited from earlier work.

For `CN1C(=O)[C@@H](NC(=O)c2nnc(Cc3ccccc3)[nH]2)COc2ccccc21` [GSK2982772], the Safety and tolerability result (clinical development) is “safe and well‐tolerated”. In addition, for the setting “healthy participants”, the “Tolerability and ALT abnormalities” value was “well‐tolerated with no reports of ALT abnormalities”.
